# Columns and labels:
# [1] = tested on: Saccharomyces cerevisiae (BY4741); assay: EA MicroPlate nutrient stimulation test without methionine (iodo-nitro-tetrazolium violet reduction); format: cell-based; settings: 30° C., 2 days, visual
# Method: In this Example, the response of a yeast to various compounds was tested. The yeast used in these experiments was Saccharomyces cerevisiae (BY4741, obtained from Dr. Mark Johnston, Washington University, St. Louis, Mo.). The genotype of this strain was indicated as being Mat a (i.e., mating type “a”), ura-, his-, leu-, and met-. In these experiments, the ability of this strain to grow in a culture medium without methionine was investigated. Methionine interferes with the ability to test this organism for its utilization of other potential sulfur sources (i.e., if methionine is added to a culture medium the organism preferentially uses it as a sulfur source). The yeast was grown for 48 hours at 30° C. on R2A agar medium (Acumedia). Cells were removed from the agar surface with a sterile cotton swab and suspended at a cell density of 65% transmittance (as read using a BiologTM turbidimeter) in an inoculating fluid containing 50 mM glucose, 0.15 mM uracil, 0.15 mM L-histidine, 0.15 mM L-leucine, 0.15 mM MgCl2, 1.0 mM CaCl2, 2.0 mM NaCl, 1.0 mM KCl, 3.0 mM NH4Cl, 1.0 mM NaH2PO4, 0.1 mM Na2SO4, 0.01% iodo-nitro-tetrazolium violet, 0.01% phytagel (gellan gum), 0.03% pluronic F-68; the pH was adjusted to 6.0. The cell suspension (100 μl/well) was then used to inoculate a BiologTM EA MicroPlateTM, which tests the ability of a cell to be stimulated by a set of 95 different nutrients. The nutrients included within the microarray were: […] One well (A-1) contains no nutrients and is used as a reference (i.e., control) well. After inoculation, the microarray was incubated at 30° C. for 2 days and visually observed.
# [2] = tested on: E. coli (MG1655); assay: BAC combination (synergy/antagonism) testing in ES1, ES2 and ES3 MicroPlate sensitivity panels, tetrazolium violet; format: cell-based; settings: in the presence of 10 μg/ml vancomycin; vancomycin wells at 10, 20, 40 and 80 μg/ml
# Method: In this Example, the susceptibility of E. coli (MG1655) was tested in the presence of vancomycin (10 μg/ml) or sulfamethoxazole (235 μg/ml) in microarrays containing various additional compounds. The microarrays were present in three Biolog™ sensitivity test panels, referred to as ES1, ES2 and ES3 MicroPlates™. The organisms were added to a sterile aqueous suspension containing 0.40% NaCl, 0.03% pluronic F68, 0.01% phytagel, and 0.01% tetrazolium violet, to a cell density of 85% transmittance (as measured using a BiologTm turbidimeter). The BAC to be tested was added to the suspension just prior to inoculating the organisms (100 μl/well) into the wells of the microarrays. The wells of these ES MicroPlates™ contained a basal broth medium consisting of tryptone (2 g/L), yeast extract (1 g/L), and NaCl (1 g/L). […]
# [3] = tested on: vancomycin-intermediate S. aureus isolates (VISA); settings: VISA isolates identified since 1996 in Europe, Asia and the U.S.; cited from earlier work
smiles,measurement,setting,value
N[C@@H](CCC(=O)N[C@@H](CS)C(=O)NCC(=O)O)C(=O)O [glutathione],stimulation of growth/respiration (pink color) in medium without methionine,[1]; glutathione well (reduced form; 100 μM),increased pink color
Cc1ncc(CO)c(CO)c1O [pyridoxine],stimulation of growth/respiration (pink color) in medium without methionine,[1]; pyridoxine well (0.25 μM),increased pink color
CN[C@H](CC(C)C)C(=O)N[C@H]1C(=O)N[C@@H](CC(N)=O)C(=O)N[C@H]2C(=O)N[C@H]3C(=O)N[C@H](C(=O)N[C@H](C(=O)O)c4cc(O)cc(O)c4-c4cc3ccc4O)[C@H](O)c3ccc(c(Cl)c3)Oc3cc2cc(c3O[C@@H]2O[C@H](CO)[C@@H](O)[C@H](O)[C@H]2O[C@H]2C[C@](C)(N)[C@H](O)[C@H](C)O2)Oc2ccc(cc2Cl)[C@H]1O [vancomycin],change of sensitivity of E. coli strain to panel compound,[2],transient increased sensitivity
same,vancomycin minimum inhibitory concentration [MIC],[3],8 to 16 µg/mL

# From patent publication US6436631B1, “Comparative phenotype analysis for assessment of biologically active compounds such as antimicrobials” (priority 2000, dated 2002)
